Results on 2 molecules are retold here after ChEMBL document CHEMBL5303573, “Mapping human microbiome drug metabolism by gut bacteria and their genes” (Nature, 2019).

The nature of series [1]: The drug is tested on Collinsella intestinalis strain: DSM13280 for biotransformation. The drug concentrations were measured before and after a 12-h incubation by liquid-chromatography-coupled mass spectrometry (LC–MS). The note with it: 2 µM.
Series [2] in a line: The drug is tested on Bacteroides caccae strain: ATCC43185 for biotransformation. The drug concentrations were measured before and after a 12-h incubation by liquid-chromatography-coupled mass spectrometry (LC–MS). Particulars: 2 µM.
Series [3] in a line: The drug is tested on Bacteroides cellulosilyticus strain: DSM14838 for biotransformation. The drug concentrations were measured before and after a 12-h incubation by liquid-chromatography-coupled mass spectrometry (LC–MS). Particulars: 2 µM.
The nature of series [4]: The drug is tested on Bacteroides finegoldii strain: DSM17565 for biotransformation. The drug concentrations were measured before and after a 12-h incubation by liquid-chromatography-coupled mass spectrometry (LC–MS). Particulars: 2 µM.
Series [5] is described as follows: The drug is tested on Bacteroides fragilis strain: ATCC43859 for biotransformation. The drug concentrations were measured before and after a 12-h incubation by liquid-chromatography-coupled mass spectrometry (LC–MS). The note with it: 2 µM.
Series [6] can be described thus: The drug is tested on Parabacteroides merdae strain: ATCC43184 for biotransformation. The drug concentrations were measured before and after a 12-h incubation by liquid-chromatography-coupled mass spectrometry (LC–MS). The note with it: 2 µM.
The nature of series [7]: The drug is tested on Anaerococcus hydrogenalis strain: DSM7454 for biotransformation. The drug concentrations were measured before and after a 12-h incubation by liquid-chromatography-coupled mass spectrometry (LC–MS). The note with it: 2 µM.
Series [8] in a line: The drug is tested on Anaerotruncus colihominis strain: DSM17241 for biotransformation. The drug concentrations were measured before and after a 12-h incubation by liquid-chromatography-coupled mass spectrometry (LC–MS). The note with it: 2 µM.
Series [9] in a line: The drug is tested on Blautia luti strain: DSM14534 for biotransformation. The drug concentrations were measured before and after a 12-h incubation by liquid-chromatography-coupled mass spectrometry (LC–MS). Set-up: dose 2 uM, timepoint 0 vs 12 hours. Type of series: ADME. Particulars: 2 µM.
Series [10] is described as follows: The drug is tested on Clostridium sp. strain: fecal isolate for biotransformation. The drug concentrations were measured before and after a 12-h incubation by liquid-chromatography-coupled mass spectrometry (LC–MS). The note with it: 2 µM.
Series [11] is described as follows: The drug is tested on Clostridium scindens strain: ATCC35704 for biotransformation. The drug concentrations were measured before and after a 12-h incubation by liquid-chromatography-coupled mass spectrometry (LC–MS). Particulars: 2 µM.
Series [12] is described as follows: The drug is tested on Clostridium sporogenes strain: ATCC15579 for biotransformation. The drug concentrations were measured before and after a 12-h incubation by liquid-chromatography-coupled mass spectrometry (LC–MS). Particulars: 2 µM.
Series [13] in a line: The drug is tested on Ruminococcus gnavus strain: ATCC29149 for biotransformation. The drug concentrations were measured before and after a 12-h incubation by liquid-chromatography-coupled mass spectrometry (LC–MS). Particulars: mediterraneibacter gnavus, 2 µM.
Series [14] in a line: The drug is tested on Subdoligranulum variabile strain: DSM15176 for biotransformation. The drug concentrations were measured before and after a 12-h incubation by liquid-chromatography-coupled mass spectrometry (LC–MS). The note with it: 2 µM.
The nature of series [15]: The drug is tested on Edwardsiella tarda strain: ATCC23685 for biotransformation. The drug concentrations were measured before and after a 12-h incubation by liquid-chromatography-coupled mass spectrometry (LC–MS). The note with it: 2 µM.
Series [16] is described as follows: The drug is tested on Enterobacter cancerogenus strain: ATCC35316 for biotransformation. The drug concentrations were measured before and after a 12-h incubation by liquid-chromatography-coupled mass spectrometry (LC–MS). Particulars: 2 µM.
Series [17] in a line: The drug is tested on Providencia rettgeri strain: DSM1131 for biotransformation. The drug concentrations were measured before and after a 12-h incubation by liquid-chromatography-coupled mass spectrometry (LC–MS). The note with it: 2 µM. Also on record: dose 2 uM, timepoint 0 vs 12 hours. The series is classed as ADME.
For series [18] the following is noted: bacteroides stercoris, 12 h, 2 µM.
Description: The drug is tested on Bacteroides stercoris strain: ATCC43183 for biotransformation. The drug concentrations were measured before and after a 12-h incubation by liquid-chromatography-coupled mass spectrometry (LC–MS)
For series [19] the following is noted: bacteroides thetaiotaomicron, 12 h, 2 µM.
Description: The drug is tested on Bacteroides thetaiotaomicron strain: 3731 for biotransformation. The drug concentrations were measured before and after a 12-h incubation by liquid-chromatography-coupled mass spectrometry (LC–MS)
The conditions of series [20]: parabacteroides distasonis, 12 h, 2 µM.
Description: The drug is tested on Parabacteroides distasonis strain: ATCC8503 for biotransformation. The drug concentrations were measured before and after a 12-h incubation by liquid-chromatography-coupled mass spectrometry (LC–MS)

Take `COc1ccnc(C[S+]([O-])c2nc3ccc(OC(F)F)cc3[nH]2)c1OC` (stereo not given) [PANTOPRAZOLE]: the “Bacterial Biotransformation” value in series [1], in series [2], in series [3], in series [4], in series [5] and in series [6] was “Compound metabolized” in each case. Moreover, the “Bacterial Biotransformation” value in series [7], in series [8], in [9], in series [10], in [11] and in series [12] was “Compound metabolized” in each case. In addition, the “Bacterial Biotransformation” value in series [13], in series [14], in series [15], in [16], in series [17] and in series [18] was “Compound metabolized” throughout. Moreover, the “Bacterial Biotransformation” value in [19] and in [20] was “Compound metabolized” each time.

With `Cc1nc2n(c(=O)c1CCN1CCC(c3noc4cc(F)ccc34)CC1)CCCC2` [RISPERIDONE], the “Bacterial Biotransformation” value in series [1] is on record as “Compound metabolized”; in series [2] it was “Compound metabolized”; in series [3], “Compound NOT metabolized”; in series [4], “Compound NOT metabolized”; in series [5], “Compound metabolized”; in series [6] it was “Compound NOT metabolized”. For the same molecule, the “Bacterial Biotransformation” value in [7], in [8], in series [9], in series [10], in series [11] and in series [12] was “Compound metabolized” throughout. The “Bacterial Biotransformation” value in series [13] is on record as “Compound metabolized”; in series [14], “Compound metabolized”; in [15] it was “Compound NOT metabolized”; in series [16], “Compound metabolized”; in [17], “Compound NOT metabolized”; in [18] it was “Compound NOT metabolized”. In addition, the “Bacterial Biotransformation” value in [19] and in [20] was “Compound NOT metabolized” each time.
